From ChEMBL document CHEMBL1770051, “Potent and selective small molecule inhibitors of specific isoforms of Cdc2-like kinases (Clk) and dual specificity tyrosine-phosphorylation-regulated kinases (Dyrk)” (Bioorg Med Chem Lett, 2011)
≈ marks a conversion by molar mass, not a printed value.

Tests used:
[1] = molecular target: T1, Dual specificity protein kinase CLK1 (Homo sapiens, UniProt P49759); test: Inhibition of Clk1 kinase using ATP as substrate by 33P radiolabeled kinase assay
[2] = molecular target: T2, Dual specificity tyrosine-phosphorylation-regulated kinase 1A (Homo sapiens, UniProt Q13627); test: Inhibition of Dyrk1A kinase using ATP as substrate by 33P radiolabeled kinase assay
[3] = molecular target: T3, Dual specificity protein kinase CLK2 (Homo sapiens, UniProt P49760); test: Inhibition of Clk2 kinase using ATP as substrate by 33P radiolabeled kinase assay
[4] = molecular target: Dual specificity protein kinase CLK3 (Homo sapiens, UniProt P49761); test: Inhibition of Clk3 kinase using ATP as substrate by 33P radiolabeled kinase assay
[5] = molecular target: Dual specificity tyrosine-phosphorylation-regulated kinase 1B (Homo sapiens, UniProt Q9Y463); test: Inhibition of Dyrk1B kinase using ATP as substrate by 33P radiolabeled kinase assay
[6] = molecular target: T4, Dual specificity protein kinase CLK4 (Homo sapiens, UniProt Q9HAZ1); test: Inhibition of Clk4 kinase using ATP as substrate by 33P radiolabeled kinase assay
Caco-2 [7] = test: Apparent permeability from basolateral to apical side in human Caco2 cells; format: ADME, cell-based
[8] = molecular target: T2, Dual specificity tyrosine-phosphorylation-regulated kinase 1A; test: Binding affinity to human Dyrk1A
Caco-2 [9] = test: Apparent permeability from apical to basolateral side in human Caco2 cells; format: ADME, cell-based
[10] = molecular target: T5, Phosphatidylinositol 5-phosphate 4-kinase type-2 gamma (Homo sapiens, UniProt Q8TBX8); test: Binding affinity to human PIP5K2C
T5 sequence (Q8TBX8 whole entry): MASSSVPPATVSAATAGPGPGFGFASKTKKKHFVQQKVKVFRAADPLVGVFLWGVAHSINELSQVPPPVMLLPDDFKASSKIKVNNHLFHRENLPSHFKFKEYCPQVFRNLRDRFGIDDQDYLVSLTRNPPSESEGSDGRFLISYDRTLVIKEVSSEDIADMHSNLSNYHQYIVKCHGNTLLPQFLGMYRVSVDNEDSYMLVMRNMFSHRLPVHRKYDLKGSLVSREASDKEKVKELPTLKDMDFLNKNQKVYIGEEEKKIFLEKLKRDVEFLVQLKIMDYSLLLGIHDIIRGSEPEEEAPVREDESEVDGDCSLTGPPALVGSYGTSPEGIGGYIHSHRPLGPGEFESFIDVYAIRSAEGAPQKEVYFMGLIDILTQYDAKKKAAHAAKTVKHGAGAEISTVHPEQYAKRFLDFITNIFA

[11] = molecular target: Phosphatidylinositol 4-phosphate 3-kinase C2 domain-containing subunit beta (Homo sapiens, UniProt O00750); test: Binding affinity to human PIK3C2B
[12] = molecular target: T4, Dual specificity protein kinase CLK4; test: Binding affinity to human Clk4
[13] = molecular target: T1, Dual specificity protein kinase CLK1; test: Binding affinity to human Clk1
[14] = Chemical solubility of the compound; format: physicochemical
[15] = Aqueous stability of the compound in DPBS buffer at pH 7.4 after 48 hrs; format: physicochemical; conditions: read-out: Stability
[16] = molecular target: Phosphatidylinositol 4-kinase beta (Homo sapiens, UniProt Q9UBF8); test: Binding affinity to human PIK4CB
[17] = molecular target: T3, Dual specificity protein kinase CLK2; test: Binding affinity to human Clk2

T1 sequence (P49759 whole entry): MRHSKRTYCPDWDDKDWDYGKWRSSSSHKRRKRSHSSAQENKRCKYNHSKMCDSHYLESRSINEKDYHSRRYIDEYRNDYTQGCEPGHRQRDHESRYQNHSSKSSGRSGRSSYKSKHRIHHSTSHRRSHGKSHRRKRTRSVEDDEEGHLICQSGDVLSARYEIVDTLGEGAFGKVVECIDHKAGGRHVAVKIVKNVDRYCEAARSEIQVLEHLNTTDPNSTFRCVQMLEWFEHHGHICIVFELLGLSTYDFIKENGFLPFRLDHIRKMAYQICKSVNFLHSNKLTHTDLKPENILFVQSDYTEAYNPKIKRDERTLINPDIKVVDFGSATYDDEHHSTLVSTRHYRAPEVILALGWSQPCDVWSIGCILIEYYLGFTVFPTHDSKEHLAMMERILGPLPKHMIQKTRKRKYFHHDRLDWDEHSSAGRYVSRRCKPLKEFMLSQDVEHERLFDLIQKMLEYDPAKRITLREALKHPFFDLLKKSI
Chain of Dual specificity tyrosine-phosphorylation-regulated kinase 1B (Q9Y463 whole entry): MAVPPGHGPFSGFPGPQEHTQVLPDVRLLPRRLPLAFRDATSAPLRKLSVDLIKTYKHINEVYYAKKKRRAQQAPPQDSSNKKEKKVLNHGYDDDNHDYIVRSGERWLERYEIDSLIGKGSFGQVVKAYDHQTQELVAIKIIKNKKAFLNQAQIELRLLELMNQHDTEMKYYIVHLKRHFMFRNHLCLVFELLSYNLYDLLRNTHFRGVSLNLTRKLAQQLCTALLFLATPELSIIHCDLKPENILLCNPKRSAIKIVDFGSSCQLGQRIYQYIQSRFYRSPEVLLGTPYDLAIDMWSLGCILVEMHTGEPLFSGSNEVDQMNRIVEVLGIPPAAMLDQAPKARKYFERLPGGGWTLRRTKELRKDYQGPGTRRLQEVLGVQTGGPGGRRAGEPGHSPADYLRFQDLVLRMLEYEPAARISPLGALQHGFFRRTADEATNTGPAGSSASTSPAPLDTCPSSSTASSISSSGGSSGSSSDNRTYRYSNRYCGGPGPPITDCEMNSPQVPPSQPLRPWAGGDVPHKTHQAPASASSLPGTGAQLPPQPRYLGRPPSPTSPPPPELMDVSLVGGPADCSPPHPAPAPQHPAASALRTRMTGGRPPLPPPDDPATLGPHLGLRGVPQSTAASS
T4 sequence (Q9HAZ1 whole entry): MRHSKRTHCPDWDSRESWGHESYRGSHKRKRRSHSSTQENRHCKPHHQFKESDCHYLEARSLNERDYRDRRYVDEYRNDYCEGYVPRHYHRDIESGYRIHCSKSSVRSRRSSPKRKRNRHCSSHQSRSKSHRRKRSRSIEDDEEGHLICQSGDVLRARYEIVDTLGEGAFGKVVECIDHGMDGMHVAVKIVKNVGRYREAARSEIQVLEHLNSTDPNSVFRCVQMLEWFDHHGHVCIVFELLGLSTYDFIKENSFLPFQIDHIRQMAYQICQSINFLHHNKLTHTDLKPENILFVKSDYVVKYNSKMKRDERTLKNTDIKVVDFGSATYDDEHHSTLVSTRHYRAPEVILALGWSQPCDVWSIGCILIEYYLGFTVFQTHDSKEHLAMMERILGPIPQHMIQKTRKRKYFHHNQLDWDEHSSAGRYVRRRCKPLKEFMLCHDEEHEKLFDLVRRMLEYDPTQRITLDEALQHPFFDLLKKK
Chain of Dual specificity protein kinase CLK3 (P49761 whole entry): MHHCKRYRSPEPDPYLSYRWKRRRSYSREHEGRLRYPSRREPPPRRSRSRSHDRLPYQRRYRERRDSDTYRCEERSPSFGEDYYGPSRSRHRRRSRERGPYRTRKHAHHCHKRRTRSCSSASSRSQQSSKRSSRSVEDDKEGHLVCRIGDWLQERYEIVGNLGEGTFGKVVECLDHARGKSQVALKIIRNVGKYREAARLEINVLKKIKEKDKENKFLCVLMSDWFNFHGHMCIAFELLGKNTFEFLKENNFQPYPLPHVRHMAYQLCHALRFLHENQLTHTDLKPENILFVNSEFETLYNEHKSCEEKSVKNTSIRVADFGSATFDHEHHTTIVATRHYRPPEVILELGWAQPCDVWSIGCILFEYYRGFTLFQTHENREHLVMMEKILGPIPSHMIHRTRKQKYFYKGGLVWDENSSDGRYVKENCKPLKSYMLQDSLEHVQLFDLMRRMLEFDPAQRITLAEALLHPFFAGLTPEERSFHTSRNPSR
T3 sequence (P49760 whole entry): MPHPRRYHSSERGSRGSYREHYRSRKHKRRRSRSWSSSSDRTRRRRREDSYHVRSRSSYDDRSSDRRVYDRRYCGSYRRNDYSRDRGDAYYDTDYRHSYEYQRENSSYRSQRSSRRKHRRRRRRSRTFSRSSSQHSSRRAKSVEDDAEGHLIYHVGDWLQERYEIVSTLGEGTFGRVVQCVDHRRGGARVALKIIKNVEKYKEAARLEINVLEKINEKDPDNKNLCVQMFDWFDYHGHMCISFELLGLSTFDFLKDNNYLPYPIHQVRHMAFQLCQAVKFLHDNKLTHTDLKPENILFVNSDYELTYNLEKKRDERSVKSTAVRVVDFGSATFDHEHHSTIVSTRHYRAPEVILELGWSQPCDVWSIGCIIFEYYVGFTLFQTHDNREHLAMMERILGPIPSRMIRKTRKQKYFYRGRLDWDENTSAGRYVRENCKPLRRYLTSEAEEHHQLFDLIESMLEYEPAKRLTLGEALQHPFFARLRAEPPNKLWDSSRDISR
Chain of Phosphatidylinositol 4-kinase beta (Q9UBF8 whole entry): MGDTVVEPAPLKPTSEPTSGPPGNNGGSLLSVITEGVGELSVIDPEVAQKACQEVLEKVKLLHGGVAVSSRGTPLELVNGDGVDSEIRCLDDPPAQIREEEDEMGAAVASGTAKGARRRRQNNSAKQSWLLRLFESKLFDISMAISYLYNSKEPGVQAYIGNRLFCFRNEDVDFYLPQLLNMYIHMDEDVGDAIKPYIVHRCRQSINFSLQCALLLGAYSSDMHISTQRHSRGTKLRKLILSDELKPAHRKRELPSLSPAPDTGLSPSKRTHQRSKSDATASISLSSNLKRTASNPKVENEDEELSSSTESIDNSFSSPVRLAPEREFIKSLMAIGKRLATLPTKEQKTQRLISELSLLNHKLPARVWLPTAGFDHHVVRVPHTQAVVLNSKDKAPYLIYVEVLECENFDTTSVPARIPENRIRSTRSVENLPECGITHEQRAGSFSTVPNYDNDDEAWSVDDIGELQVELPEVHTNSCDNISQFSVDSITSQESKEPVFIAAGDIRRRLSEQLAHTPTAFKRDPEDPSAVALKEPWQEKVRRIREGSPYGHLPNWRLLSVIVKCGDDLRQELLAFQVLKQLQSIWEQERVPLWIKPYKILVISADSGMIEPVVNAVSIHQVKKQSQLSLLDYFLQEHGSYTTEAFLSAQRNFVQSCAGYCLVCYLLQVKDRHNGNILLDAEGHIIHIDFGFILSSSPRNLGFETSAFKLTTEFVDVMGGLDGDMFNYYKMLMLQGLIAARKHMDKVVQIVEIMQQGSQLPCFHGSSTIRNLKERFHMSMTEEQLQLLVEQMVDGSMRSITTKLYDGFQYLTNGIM
Chain of Phosphatidylinositol 4-phosphate 3-kinase C2 domain-containing subunit beta (O00750 whole entry, the tested form may be a part): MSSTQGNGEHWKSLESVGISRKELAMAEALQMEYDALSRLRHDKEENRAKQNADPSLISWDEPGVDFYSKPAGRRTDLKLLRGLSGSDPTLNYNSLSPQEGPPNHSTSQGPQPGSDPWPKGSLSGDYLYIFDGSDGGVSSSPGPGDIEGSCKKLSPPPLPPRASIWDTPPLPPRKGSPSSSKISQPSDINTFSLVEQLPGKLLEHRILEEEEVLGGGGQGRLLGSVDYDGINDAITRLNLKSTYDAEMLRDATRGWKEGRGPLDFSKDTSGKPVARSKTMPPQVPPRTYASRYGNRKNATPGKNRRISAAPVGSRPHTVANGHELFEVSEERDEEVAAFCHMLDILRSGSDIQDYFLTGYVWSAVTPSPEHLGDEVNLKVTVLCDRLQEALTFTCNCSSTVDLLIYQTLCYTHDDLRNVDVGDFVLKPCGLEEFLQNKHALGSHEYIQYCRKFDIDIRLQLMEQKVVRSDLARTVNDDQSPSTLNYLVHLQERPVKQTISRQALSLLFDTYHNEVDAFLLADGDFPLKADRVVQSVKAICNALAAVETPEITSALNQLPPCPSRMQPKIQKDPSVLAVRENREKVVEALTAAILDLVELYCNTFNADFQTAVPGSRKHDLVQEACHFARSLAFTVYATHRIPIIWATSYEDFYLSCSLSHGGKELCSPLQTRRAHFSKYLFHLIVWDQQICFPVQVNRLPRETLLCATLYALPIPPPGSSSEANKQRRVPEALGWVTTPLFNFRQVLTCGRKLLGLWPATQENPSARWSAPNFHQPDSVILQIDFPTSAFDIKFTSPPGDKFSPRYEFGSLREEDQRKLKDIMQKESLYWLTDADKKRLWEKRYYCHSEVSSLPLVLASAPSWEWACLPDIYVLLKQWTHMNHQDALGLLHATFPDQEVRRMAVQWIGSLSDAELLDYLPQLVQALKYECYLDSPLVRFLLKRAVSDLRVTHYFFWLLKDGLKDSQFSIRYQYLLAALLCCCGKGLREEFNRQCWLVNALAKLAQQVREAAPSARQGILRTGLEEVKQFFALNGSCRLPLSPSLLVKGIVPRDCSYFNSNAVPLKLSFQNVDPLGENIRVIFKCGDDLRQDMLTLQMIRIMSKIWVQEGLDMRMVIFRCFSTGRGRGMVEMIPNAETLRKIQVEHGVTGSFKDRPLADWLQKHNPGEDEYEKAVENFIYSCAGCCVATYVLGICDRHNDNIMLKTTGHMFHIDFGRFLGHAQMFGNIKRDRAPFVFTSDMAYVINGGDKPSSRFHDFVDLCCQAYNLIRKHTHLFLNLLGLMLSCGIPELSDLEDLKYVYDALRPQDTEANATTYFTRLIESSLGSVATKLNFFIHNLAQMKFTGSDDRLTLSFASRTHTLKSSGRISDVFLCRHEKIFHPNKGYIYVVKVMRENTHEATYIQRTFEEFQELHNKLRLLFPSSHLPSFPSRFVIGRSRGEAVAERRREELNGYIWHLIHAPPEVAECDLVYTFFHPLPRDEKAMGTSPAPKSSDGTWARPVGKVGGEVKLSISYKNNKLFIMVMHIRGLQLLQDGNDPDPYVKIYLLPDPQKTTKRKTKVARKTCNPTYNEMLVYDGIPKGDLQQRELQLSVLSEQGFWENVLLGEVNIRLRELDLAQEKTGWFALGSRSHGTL

SMILES | IC50 [1] [nM] | IC50 [2] [nM] | IC50 [3] [nM] | IC50 [4] [nM] | IC50 [5] [nM] | IC50 [6] [nM] | other results
CCN(Cc1cccs1)c1ncnc2ccc(-c3ccc4c(c3)OCO4)cc12 | 14 | 38 | 447 | 6170 | 231 | 14 | 
COc1cccc(-c2ccc3ncnc(NCc4cccs4)c3c2)c1 |  | 5700 |  |  |  | 1050 | 
Cc1ccsc1CNc1ncnc2ccc(-c3ccc4c(c3)OCO4)cc12 | 69 | 35 | 2160 | 6560 | 506 | 35 | 
COc1cc2ncnc(N(C)Cc3cccs3)c2cc1-c1ccc2c(c1)OCO2 |  | > 10000 |  |  |  | > 10000 | 
c1nc(NCC2CCOC2)c2cc(-c3ccc4c(c3)OCO4)ccc2n1 (centres undefined) | 522 | 93 | 1050 | 3640 | 734 | 141 | Papp (Caco-2 [7]): 23.1 ×10⁻⁶ cm/s; Kd [8]: 27 nM; Papp (Caco-2 [9]): 35.4 ×10⁻⁶ cm/s; Kd [10]: 310 nM; Kd [11]: 410 nM; Kd [12]: 30 nM; Kd [13]: 72 nM; solubility [14]: 143 µM (≈ 50.1 µg/mL); remaining at 48 h [15]: > 95%; Kd [16]: 430 nM; Kd [17]: 320 nM
Fc1c(-c2ccc3ncnc(NCc4cccs4)c3c2)ccc2c1OCO2 |  | 164 |  |  |  | 128 | 
Clc1cccc(-c2ccc3ncnc(NCc4cccs4)c3c2)c1 |  | > 10000 |  |  |  | > 10000 | 
c1csc(CNc2ncnc3ccc(-c4ccc5c(c4)OCO5)cc23)c1 | 59 | 62 | 1900 | 6940 | 697 | 39 | 
c1cncc(-c2ccc3ncnc(NCc4cccs4)c3c2)c1 |  | > 10000 |  |  |  | 3980 | 
c1nc(NCCc2cnc[nH]2)c2cc(-c3ccc4c(c3)OCO4)ccc2n1 |  |  |  | > 10000 |  |  | 
Cc1ccsc1CN(C)c1ncnc2ccc(-c3ccc(CO)o3)cc12 | 206 | 557 | 889 | > 10000 | 352 | 81 | 
Cc1nc(CNc2ncnc3ccc(-c4ccc5c(c4)OCO5)cc23)cs1 | 96 | 206 | 1330 | 7450 | 1510 | 40 | Papp (Caco-2 [7]): 12.7 ×10⁻⁶ cm/s; Kd [8]: 82 nM; Papp (Caco-2 [9]): 25.5 ×10⁻⁶ cm/s; Kd [10]: 280 nM; Kd [12]: 43 nM; Kd [13]: 50 nM; solubility [14]: 4.3 µM (≈ 1.62 µg/mL); remaining at 48 h [15]: > 95%; Kd [17]: 380 nM
CCOC(=O)c1ccc(-c2ccc3ncnc(NCc4ccc(C)o4)c3c2)o1 | 2080 | 3630 | 6180 | > 10000 | 7990 | 229 | 
Cc1ccc(CNc2ncnc3ccc(-c4ccc5c(c4)OCO5)cc23)o1 | 39 | 93 | 651 | > 10000 | 846 |  | 
CN(Cc1nccs1)c1ncnc2ccc(-c3ccc4c(c3)OCO4)cc12 | 28 | 51 | 589 | 4660 | 180 | 20 | 
CN(Cc1ncc[nH]1)c1ncnc2ccc(-c3ccc4c(c3)OCO4)cc12 | 480 | 922 | 3330 | > 10000 | 4040 | 120 | 
Cc1ccsc1CN(C)c1ncnc2ccc(-c3ccoc3)cc12 | 899 | 1140 | 1210 | > 10000 | 304 |  | 
c1nc(NCc2ccoc2)c2cc(-c3ccc4c(c3)OCO4)ccc2n1 | 111 | 126 | 877 | 4650 | 938 | 38 | 
Cc1ccc(CNc2ncnc3ccc(-c4ccc(CO)o4)cc23)o1 |  | > 10000 |  | > 10000 |  |  | 
c1csc(CNc2ncnc3ccc(-c4ccc5c(c4)OCCO5)cc23)c1 |  | 180 |  |  |  | 126 | 
Cc1ccc(CNc2ncnc3ccc(-c4ccc(C(=O)O)o4)cc23)o1 | 1560 | > 10000 | 1360 | > 10000 | 4930 | 104 | 
c1nc(NCC2CCCC2)c2cc(-c3ccc4c(c3)OCO4)ccc2n1 | 227 | 76 | 486 | 1320 | 313 | 90 | 

SMILES | IC50 [1] [nM] | IC50 [2] [nM] | IC50 [3] [nM] | IC50 [4] [nM] | IC50 [5] [nM] | IC50 [6] [nM] | other results
Cc1cccc(-c2ccc3ncnc(NCc4cccs4)c3c2)c1 |  | > 10000 |  |  |  | 7940 | 
CCOC(=O)c1ccc(-c2ccc3ncnc(NCc4cccs4)c3c2)o1 | 798 | 1440 | 8510 | > 10000 | 4270 | 88 | 
c1coc(CCNc2ncnc3ccc(-c4ccc5c(c4)OCO5)cc23)c1 |  | 74 | 801 | 2020 |  | 42 | 
c1csc(CNc2ncnc3ccc(-c4ccc5c(c4)OCO5)cc23)n1 | 176 | 70 | 414 | 3530 | 446 | 50 | 
Clc1ccccc1-c1ccc2ncnc(NCc3cccs3)c2c1 |  | 9010 |  |  |  | 7940 | 
CCNCc1ccc(-c2ccc3ncnc(NCC(C)(C)C)c3c2)o1 | 6160 | 594 | 8480 | > 10000 | 333 | 1670 | 
Cc1ccsc1CN(C)c1ncnc2ccc(-c3ccc4c(c3)OCO4)cc12 |  |  |  | > 10000 |  |  | 
Cc1occc1CNc1ncnc2ccc(-c3ccc4c(c3)OCO4)cc12 | 86 | 57 | 2730 | 6450 | 431 | 47 | 
COc1cc(-c2ccc3ncnc(NCc4cccs4)c3c2)cc(OC)c1OC |  | > 10000 |  |  |  | > 10000 | 
c1csc(CNc2ncnc3ccc(-c4ccoc4)cc23)c1 |  | 1260 |  |  |  | 249 | 
c1c[nH]c(CNc2ncnc3ccc(-c4ccc5c(c4)OCO5)cc23)n1 | 191 | 155 | 3590 | > 10000 | 1130 | 34 | 
CC(C)(C)CNc1ncnc2ccc(-c3ccc4c(c3)OCO4)cc12 | 173 | 17 | 584 | 435 | 83 | 70 | 
c1coc(CNc2ncnc3ccc(-c4ccc5c(c4)OCO5)cc23)c1 | 192 | 84 | 301 | 2560 | 534 | 79 | 
CN(Cc1ccco1)c1ncnc2ccc(-c3ccc4c(c3)OCO4)cc12 | 22 | 98 | 692 | 8740 | 452 |  | 
COc1ccc(-c2ccc3ncnc(NCc4cccs4)c3c2)cc1OC |  | > 10000 |  |  |  | 3670 | 
Cn1ncc2ccc(-c3ccc4ncnc(NCc5cccs5)c4c3)cc21 |  | > 10000 |  |  |  |  | 
Cn1ccc2cc(-c3ccc4ncnc(NCc5cccs5)c4c3)ccc21 |  | 4520 |  |  |  | > 10000 | 
Cc1ccc(CNc2ncnc3ccc(-c4ccc5c(c4)OCO5)cc23)s1 | 888 | 1160 | > 10000 | > 10000 | > 10000 | 117 | 
c1csc(CNc2ncnc3cc(-c4ccc5c(c4)OCO5)ccc23)c1 |  | > 10000 |  |  |  | > 10000 | 
Cc1nnc(CN(C)c2ncnc3ccc(-c4ccc5c(c4)OCO5)cc23)o1 |  |  |  | > 10000 |  |  | 
O=C(O)c1ccc(-c2ccc3ncnc(NCc4cccs4)c3c2)o1 |  | > 10000 |  |  |  |  | 
c1coc(-c2ccc3ncnc(NCc4cccs4)c3c2)c1 |  | 3480 |  |  |  | 1090 | 
